Values quoted from earlier work in article PMC9308844, “Development of new copper-64 labeled rhodamine: a potential PET myocardial perfusion imaging agent” (EJNMMI Radiopharmacy and Chemistry, 2022).

Set-up: method as in earlier work
Conditions: ref Baranyai et al. [2020]; Clarke et al. 1990; Clarke and Martell [1991a], [b]; Wadas et al. [2010]; Tolmachev et al. [2017]

O=C([O-])CN1CCN(CC(=O)[O-])CCN(CC(=O)[O-])CC1.[Cu+2] [[Cu^II NOTA]]
Log K of Cu^II complex: 21.6
